Source: ChEMBL document CHEMBL3137667, “[Drug-induced liver injury; fourteenth updated edition of the bibliographic database of liver injuries and related drugs]” (Gastroenterol Clin Biol, 2004)

How the values were obtained:
[1] = human
[2] = human; remark: listed apart in the source
[3] = human; remark: listed apart in the source
[4] = human; remark: listed apart in the source
[5] = Highest frequency of acute liver toxicity observed during clinical trials, expressed as a percentage. [column '% AIGUE' in source]; conditions: human
[6] = human, serum
[7] = human; remark: listed apart in the source
[8] = human; remark: listed apart in the source
[9] = human; remark: listed apart in the source
[10] = Highest frequency of moderate liver toxicity observed during clinical trials, expressed as a percentage. [column '% BIOL' in source]; conditions: human
[11] = human, serum; remark: listed apart in the source
[12] = human, serum, 4383 h
[13] = human; remark: listed apart in the source
[14] = human; remark: listed apart in the source
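Wherever Hepatotoxicity (association with vascular disease) is given: count of indexed literature references reporting vascular liver injury in humans, e.g. peliosis hepatitis, hepatic veno-occlusive disease or Budd-Chiari syndrome.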
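Wherever Hepatotoxicity (benign tumour) is given: value is a count of indexed literature references citing a benign tumour confirmed by histopathology.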
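Wherever Hepatotoxicity (choleostasis) is given: human cholestatic liver injury, shown by histopathology or by peak ALT or AST elevation over alkaline phosphatase ratio below 2, value counts indexed literature reports.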
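Wherever Hepatotoxicity (chronic liver disease) is given: chronic liver injury confirmed by histopathology or persistently raised serum aminotransferase activity beyond 6 months, value given as the count of indexed literature references.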
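Wherever Hepatotoxicity (cirrhosis) is given: value is a count of indexed literature references reporting cirrhosis confirmed by histopathology.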
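Wherever Hepatotoxicity (cytolytic) is given: human cytolytic liver injury, shown by histopathology or by a ratio above 5 of peak ALT or AST elevation to alkaline phosphatase elevation, value counts indexed references.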
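Wherever Hepatotoxicity (granulomatous hepatitis) is given: value is a count of indexed literature references reporting granulomatous liver disease confirmed by histopathology.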
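Wherever Hepatotoxicity (malignant tumour) is given: malignant tumour confirmed by histopathology, value gives the count of indexed literature references reporting it.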
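Wherever Hepatotoxicity (severe hepatitis) is given: human clinical data: severe hepatitis, meaning potentially life-threatening liver failure or clinically observed cases, the value counts how many indexed literature references report it.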
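Wherever Hepatotoxicity (steatosis) is given: steatosis confirmed by histopathology, value is the count of indexed references.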

| SMILES | Hepatotoxicity (severe hepatitis) [1] | Hepatotoxicity (steatosis) [2] | Hepatotoxicity (benign tumour) [3] | Hepatotoxicity (malignant tumour) [4] | Hepatotoxicity (acute) [5] [%] | Hepatotoxicity (acute) [6] | Hepatotoxicity (association with vascular disease) [7] | Hepatotoxicity (choleostasis) [8] | Hepatotoxicity (granulomatous hepatitis) [9] | Hepatotoxicity (moderate) [10] [%] | Hepatotoxicity (moderate) [11] | Hepatotoxicity (chronic liver disease) [12] | Hepatotoxicity (cirrhosis) [13] | Hepatotoxicity (cytolytic) [14] | Hepatotoxicity (severe hepatitis) ([1]; Liver) | Hepatotoxicity (acute) ([5]; Liver) [%] | Hepatotoxicity (choleostasis) ([8]; Liver) | Hepatotoxicity (granulomatous hepatitis) ([9]; Liver) | Hepatotoxicity (moderate) ([10]; Liver) [%] | Hepatotoxicity (cytolytic) ([14]; Liver) |
| --- | --- | --- | --- | --- | --- | --- | --- | --- | --- | --- | --- | --- | --- | --- | --- | --- | --- | --- | --- | --- |
| CC1(C)CC(=O)N(CCCCN2CCN(c3ncccn3)CC2)C(=O)C1 [GEPIRONE] | 0 | 0 | 0 | 0 | 0 | 0 | 0 | 0 | 0 | 3.3 | 1 | 0 | 0 | 0 |  |  |  |  |  |  |
| C#C[C@]1(O)CC[C@H]2[C@@H]3CCC4=CC(=O)CCC4=C3C=C[C@@]21CC [GESTRINONE] | 0 | 0 | 0 | 0 | 0 | 0 | 0 | 0 | 0 | 0.8 | 1 | 0 | 0 | 0 |  |  |  |  |  |  |
| Cc1cc(C(=O)NCCc2ccc(S(=O)(=O)NC(=O)NN3CCCCCC3)cc2)no1 [GLISOXEPIDE] | 0 | 0 | 0 | 0 | 0 | 0 | 0 | 0 | 0 | 0 | 1 | 0 | 0 | 0 |  |  |  |  |  |  |
| CC(C)C[C@H](NC(=O)[C@@H](COC(C)(C)C)NC(=O)[C@H](Cc1ccc(O)cc1)NC(=O)[C@H](CO)NC(=O)[C@H](Cc1c[nH]c2ccccc12)NC(=O)[C@H](Cc1cnc[nH]1)NC(=O)[C@@H]1CCC(=O)N1)C(=O)N[C@@H](CCCNC(=N)N)C(=O)N1CCC[C@H]1C(=O)NNC(N)=O [GOSERELIN] | 1 | 0 | 0 | 0 | 0 | 0 | 0 | 0 | 0 | 7.8 | 5 | 0 | 0 | 0 |  |  |  |  |  |  |
| Cc1cc2c(C(C)C)c(O)c(O)c(C=O)c2c(O)c1-c1c(C)cc2c(C(C)C)c(O)c(O)c(C=O)c2c1O [GOSSYPOL] | 0 | 0 | 0 | 0 | 0 | 0 | 0 | 0 | 0 | 93 | 1 | 0 | 0 | 0 |  |  |  |  |  |  |
| Cc1c(F)c(N2CCNC(C)C2)cc2c1c(=O)c(C(=O)O)cn2C1CC1 (stereo not given) [GREPAFLOXACIN] |  | 0 | 0 | 0 |  | 0 | 0 |  |  |  | 22 | 0 | 0 |  | 0 | 0 | 0 | 0 | 14.3 | 0 |
| CCCCN(CCCC)CCC(O)c1cc2c(Cl)cc(Cl)cc2c2cc(C(F)(F)F)ccc12 (stereo not given) [HALOFANTRINE] | 0 | 0 | 0 | 0 | 0 | 0 | 0 | 0 | 0 | 29 | 8 | 0 | 0 | 0 |  |  |  |  |  |  |
| CC(=O)NCCOC(=O)C(Oc1cccc(C(F)(F)F)c1)c1ccc(Cl)cc1 (stereo not given) [HALOFENATE] | 0 | 0 | 0 | 0 | 0 | 0 | 0 | 0 | 0 | 0 | 1 | 0 | 0 | 0 |  |  |  |  |  |  |
| O=C(NCCN1CCC(n2c(=O)[nH]c3cc(Cl)ccc32)CC1)c1ccc(F)cc1 [HALOPEMIDE] | 0 | 0 | 0 | 0 | 0 | 0 | 0 | 0 | 0 | 27 | 1 | 0 | 0 | 0 |  |  |  |  |  |  |
| CC1(C)S[C@@H]2[C@H](N3C(=O)[C@@H](c4ccccc4)NC3(C)C)C(=O)N2[C@H]1C(=O)O [HETACILLIN] | 0 | 0 | 0 | 0 | 0 | 1 | 0 | 0 | 0 | 0 | 0 | 0 | 0 | 1 |  |  |  |  |  |  |
| CC(=O)NCCCCCCNC(C)=O [HEXAMETHYLENEBISACETAMIDE] | 0 | 0 | 0 | 0 | 0 | 1 | 0 | 0 | 0 | 0 | 0 | 0 | 0 | 1 |  |  |  |  |  |  |
| CN1CCCN(C(c2ccccc2)c2ccc(Cl)cc2)CC1 (stereo not given) [HOMOCHLORCYCLIZINE] | 0 | 0 | 0 | 0 | 0 | 1 | 0 | 1 | 0 | 0 | 0 | 0 | 0 | 1 |  |  |  |  |  |  |
| CC(=O)[C@@]1(O)CC[C@H]2[C@@H]3CCC4=CC(=O)CC[C@]4(C)[C@H]3CC[C@@]21C [HYDROXYPROGESTERONE] | 0 | 0 | 0 | 0 | 0 | 1 | 0 | 1 | 0 | 0 | 0 | 0 | 0 | 0 |  |  |  |  |  |  |
| CCCCCN(C)CCC(O)(P(=O)(O)O)P(=O)(O)O [IBANDRONIC ACID] | 0 | 0 | 0 | 0 | 0 | 0 | 0 | 0 | 0 | 0.6 | 1 | 0 | 0 | 0 |  |  |  |  |  |  |
| CC(C)(N)C(=O)N[C@H](COCc1ccccc1)C(=O)N1CCC2(CC1)CN(S(C)(=O)=O)c1ccccc12 [IBUTAMOREN] | 0 | 0 | 0 | 0 | 0 | 0 | 0 | 0 | 0 | 21.4 | 1 | 0 | 0 | 0 |  |  |  |  |  |  |
